According to publication PMC12481576, “Barbituric Acid Derivatives as Covalent Inhibitors of Leishmania braziliensis Dihydroorotate Dehydrogenase” (Journal of Medicinal Chemistry, 2025):
Where two headings read alike, the source gives them in different places.

What was measured:
LbDHODH = LbDHODH (Leishmania braziliensis, UniProt E9AI53); assay: biochemical; conditions: for IC50: LbDHODH
Protocol: To assess the ability of compounds 2a–2i to inhibit LbDHODH via covalent bond formation with Cys^131, we initially screened them at a concentration of 100 μM under two conditions: with and without a 4-h preincubation with the enzyme.
The experiments were performed in a 96-well microplate reader (SpectraMax Plus 384, Molecular Devices, USA), containing the […] of the buffer 60 mM DCIP, 50 mM Tris pH 8.15, 150 mM KCl, 0.1% Triton X-100, 50 μM DHO and 10 μM of LbDHODH at 165 nM. The reaction was monitored every 3 s at 610 nm over a period of 60 s, in triplicate, for the control and each concentration of the inhibitor. All assays were performed without incubation (0h) and with 4-h preincubation of the inhibitor with LbDHODH, using 5% DMSO (v/v) as control. […]. […] The resulting kobs values were plotted as a function of inhibitor concentration, and the data in the initial linear region was fit to determine the slope, which is kinact/KI. All regressions were performed with GraphPad Prism 9.

[1] = Cell viability / cytotoxicity assay (PrestoBlue, 72 h); assay type: cell-based; conditions: human; THP-1 cell line, 72 h, max 200 μM; read-out: CC50
Protocol: THP-1 cells (American Type Cell Collection, #TIB-202) were acquired in 2019 and stored frozen in liquid nitrogen. The cells were then maintained in RPMI 1640 (Thermo Fisher Scientific, #S31800–022) at 37 °C in a 5% CO2 atmosphere and routinely tested for Mycoplasma contamination by PCR using the primers 5′-[…] and 5′-[…]. To test the toxicity of compounds, 5000 cells were added to 96-well plates with a final volume of 80 μL centrifuged at 400g for 2 min and incubated with 150 ng/mL of phorbol myristate acetate (Merck, #P8139) for 48 h. The medium was replaced, and after 24 h, the compounds were added and tested at decreasing concentrations starting from 200 μM (10 μL/well). After 72 h of incubation, 10 μL of PrestoBlue Cell Viability Reagent (Thermo Fisher Scientific, #A13262) was added per well. After adding the reagent, the cells were incubated for 2 h at 37 °C in a 5% CO2 atmosphere, and fluorescence readings were performed using the SpectraMax M3 reader (excitation at 560 nm and emission at 590 nm).

[2] = tested on: Leishmania braziliensis promastigotes; assay: Leishmanicidal activity, promastigote growth (SYBR Green, 72 h); assay type: cell-based, Leishmania (V.) braziliensis (MHOM/BR/1975/M2904); conditions: Leishmania braziliensis, L. braziliensis promastigotes, max 200 μM
Protocol: The cultures were adjusted to 4 × 10^6 parasites per mL, and 50 μL of each culture was added on a test plate with 384 wells (Corning, #CLS3658), along with the controls and compounds to be tested. Previously diluted compounds in DMSO were added to plates in decreasing concentrations, with a maximum concentration of 200 μM. Parasites were exposed to a final concentration of DMSO in various dilutes (final = 0.5%), and the culture medium was used as the control for the experiment. […] After adding the lysis buffer, the plates were incubated in the dark for 2 h with gentle shaking. The readings were done using a SpectraMax M3 reader (excitation at 485 nm and emission at 535 nm).

HsDHODH = molecular target: T1, HsDHODH (Homo sapiens, UniProt Q02127); assay: Selectivity assay: HsDHODH single-dose inhibition (DCIP reduction); assay type: biochemical
T1 construct: made in house
T1 sequence (Q02127 whole entry): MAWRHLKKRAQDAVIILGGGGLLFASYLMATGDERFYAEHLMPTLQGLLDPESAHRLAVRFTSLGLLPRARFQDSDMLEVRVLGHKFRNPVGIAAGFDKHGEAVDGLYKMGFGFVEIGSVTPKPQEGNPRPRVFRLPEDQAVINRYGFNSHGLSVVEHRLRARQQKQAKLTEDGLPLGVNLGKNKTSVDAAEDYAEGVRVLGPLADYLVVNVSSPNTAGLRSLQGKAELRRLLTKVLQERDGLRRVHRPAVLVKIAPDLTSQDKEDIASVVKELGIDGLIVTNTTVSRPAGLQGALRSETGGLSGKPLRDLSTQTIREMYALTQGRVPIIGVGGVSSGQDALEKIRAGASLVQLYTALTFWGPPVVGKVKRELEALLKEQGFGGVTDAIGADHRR
Protocol: […]. This finding highlights the potential of barbituric acid derivatives as selective inhibitors of LbDHODH.
Human DHODH expression and purification were conducted following a protocol previously established in our laboratory. The purification was carried out by affinity chromatography on a Ni-NTA Agarose column (Qiagen[…] Cat. No. 30210). […] The reaction was performed in triplicate, initiated by adding 195 μL of reaction buffer to 5 μL of HsDHODH protein solution for a final concentration of 20 nM enzyme. As a blank, 195 μL of reaction buffer was added to 5 μL of Buffer A. The reaction was monitored at 610 nm every 3 s over 60 s. As a control, 5 μL of enzyme was added to 195 μL of reaction medium without compound. Enzymatic velocity was calculated, and the percentage of relative enzymatic activity was determined relative to the control.

[3] = LbDHODH remaining activity, compound 100 μM, 4-h preincubation, read-out: single dose (4 h) % activity
[4] = LbDHODH remaining activity, compound 100 μM, without preincubation, read-out: single dose (0 h) % activity
[5] = read-out: Single dose (0h) % activity
[6] = read-out: Single dose (4h) % activity

LbDHODH, sequence (E9AI53 entry or part of it): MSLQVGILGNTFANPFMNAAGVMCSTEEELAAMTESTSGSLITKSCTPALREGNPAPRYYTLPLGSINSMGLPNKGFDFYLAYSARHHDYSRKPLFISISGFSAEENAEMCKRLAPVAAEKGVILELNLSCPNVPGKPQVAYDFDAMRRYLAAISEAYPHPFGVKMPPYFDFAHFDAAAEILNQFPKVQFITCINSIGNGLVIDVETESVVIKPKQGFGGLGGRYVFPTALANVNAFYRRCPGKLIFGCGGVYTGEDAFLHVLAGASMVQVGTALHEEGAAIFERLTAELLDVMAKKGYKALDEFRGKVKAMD

SMILES | activity at 100 µM (LbDHODH; [3]) | single dose (0 h) % activity (LbDHODH; LbDHODH remaining activity, compound 100 μM, without preincubation, 100 µM) | activity at 100 µM (LbDHODH; [4]) | CC50 at 72 h [1] | EC50 [2] | activity at 100 µM (HsDHODH; [5]) | activity at 100 µM (HsDHODH; [6]) | IC50 (LbDHODH; IC50 0 h, without preincubation) | IC50 (LbDHODH; IC50 4 h, 4-h preincubation) | activity at 100 µM (LbDHODH; [5]) | activity at 100 µM (LbDHODH; [6])
O=C1NC(=O)C(Cc2ccc(-c3ccccc3)cc2)C(=O)N1 [3f, 5-([1,1′-Biphenyl]-4-ylmethyl)pyrimidine-2,4,6(1H,3H,5H)-trione] | 34 ± 6% | 82.6 ±0.2% | 83 ± 0.2% | > 200 µM | > 200 µM | 93 ± 11% | 102 ± 10% | – | – | – | –
O=C1NC(=O)C(Cc2cccc(O)c2)C(=O)N1 [3g, 5-(3-Hydroxybenzyl)pyrimidine-2,4,6(1H,3H,5H)-trione] | 36 ± 3% | – | 93 ± 5% | > 200 µM | > 200 µM | 87 ± 10% | 86 ± 10% | – | – | – | –
O=C1NC(=O)C(Cc2ccc(-c3ccccc3F)[nH]2)C(=O)N1 [3h, 5-((5-(2-Fluorophenyl)-1H-pyrrol-2-yl)methyl)pyrimidine-2,4,6(1H,3H,5H)-trione] | – | – | – | > 200 µM | > 200 µM | 89 ± 10% | 91 ± 9% | > 100 µM | > 100 µM | 80 ± 10% | 80 ± 20%
O=C1NC(=O)C(CC=Cc2ccccc2)C(=O)N1 [3i, 5-Cinnamylpyrimidine-2,4,6(1H,3H,5H)-trione] | – | – | – | 193 ± 67 µM | > 200 µM | 102 ± 12% | 98 ± 10% | – | – | 103 ± 3% | 21 ± 7%
O=C1NC(=O)C(CCCc2ccccc2)C(=O)N1 [3ii, 5-(3-Phenylpropyl)pyrimidine-2,4,6(1H,3H,5H)-trione] | 21 ± 7% | – | 98 ± 5% | > 200 µM | 23 ± 6 µM | 99 ± 11% | 96 ± 9% | – | – | – | –
